Test results published in patent publication US20110045101A1, “FUNGICIDAL SUBSTITUTED AZOLES” (E.I. Du Pont De Nemours and Company, priority 2009, published 2011).
Marks after values point to notes of the source that are not given here.

Tests used:
Type in all cases: in vivo
Details in all cases: 100 = 100% disease control
[1] = tested on: Septoria tritici; test: Test G: wheat leaf blotch on wheat seedlings, sprayed the day before inoculation, visual disease rating
Procedure, shortened: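 Wheat seedlings were sprayed with compound suspensions, 200 ppm unless starred (40 ppm). After next-day spore inoculation, plants spent 48 h saturated at 24° C, then 19 days at 20° C, when disease was rated visually.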

[2] = tested on: Botrytis cinerea; test: Test C: tomato Botrytis on tomato seedlings, sprayed the day before inoculation, visual disease rating
Procedure, shortened: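 Compounds were dissolved in acetone (3% of final volume), then suspended in 50/50 acetone/purified water containing 250 ppm polyhydric alcohol ester surfactant. Suspensions were sprayed to run-off on tomato seedlings at 200 ppm, equivalent to 500 g/ha, or at 40 ppm where marked.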

[3] = tested on: Puccinia recondita f. sp. tritici; test: Test H: wheat leaf rust, test suspension sprayed after inoculation of wheat seedlings, visual disease rating
Procedure, shortened: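 Wheat seedlings inoculated with P. recondita spores, held 24 h saturated at 20 °C, then 2 days in growth chamber at 20 °C; compound suspension (acetone/water with Trem 014) sprayed to run-off afterwards. Rated visually; 200 ppm (≈500 g/ha) unless marked *, which denotes 40 ppm.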

[4] = tested on: Erysiphe graminis f. sp. tritici; test: Test J: wheat powdery mildew on wheat seedlings, sprayed the day before inoculation, visual disease rating
Procedure, shortened: (§1)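 Compounds were dissolved in acetone (3% of final volume), then suspended in 50/50 acetone/purified water with 250 ppm Trem® 014 surfactant. Suspensions at 200 ppm (some at 40 ppm) were sprayed to run-off, 200 ppm being equivalent to 500 g/ha.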

[5] = tested on: Puccinia recondita f. sp. tritici; test: Test I: wheat leaf rust on wheat seedlings, sprayed the day before inoculation, visual disease rating
Procedure, shortened: as §1

[6] = tested on: Septoria nodorum; test: Test F: wheat glume blotch on wheat seedlings, sprayed the day before inoculation, visual disease rating
Procedure, shortened: as §1

[7] = tested on: Alternaria solani; test: Test D: tomato early blight, sprayed the day before inoculation, visual disease rating
Procedure, shortened: as §1

[8] = 200 ppm, 0 = no control relative to controls

Row | SMILES | Test G disease control rating [1, 8] | Test C disease control rating [2, 8] | Test H disease control rating [3, 8] | Test J disease control rating [4, 8] | Test I disease control rating [5, 8] | Test F disease control rating [6, 8] | Test D disease control rating [7, 8] | Test G disease control rating ([1]; 40 ppm (marked *)) | Test C disease control rating ([2]; 40 ppm (marked *)) | Test H disease control rating ([3]; 40 ppm (marked *)) | Test J disease control rating ([4]; 40 ppm (marked *)) | Test I disease control rating ([5]; 40 ppm (marked *)) | Test F disease control rating ([6]; 40 ppm (marked *)) | Test D disease control rating ([7]; 40 ppm (marked *))
1 | Cc1nc(Br)c(Cc2c(F)cc(F)cc2F)n1-c1cc(Cl)cc(Cl)c1 [compound 541] | 0% | 0% | 0% | 0% | 0% | 0% | 0% |  |  |  |  |  |  | 
2 | COc1cc(F)c(-c2c(Cl)nc(Br)n2-c2ccc(C)c(Cl)c2)c(F)c1 [compound 542] |  |  |  |  |  |  |  | 97* % | 99* % | 0* % | 89* % | 98* % | 0* % | 96* %
3 | Cc1nc(C)n(-c2ccc(F)cc2Cl)c1-c1ccc(Cl)c(F)c1 [compound 543] |  |  |  |  |  |  |  | 97* % | 99* % | 0* % | 0* % | 95* % | 0* % | 60* %
4 | COc1cc(F)c(-c2c(Cl)nc(Br)n2-c2cccc(OC(F)F)c2)c(F)c1 [compound 545] | 99% | 100% | 27% | 99% | 100% | 98% | 100% |  |  |  |  |  |  | 
5 | COc1cc(F)c(-c2c(Cl)nc(Br)n2-c2ccc(OC(F)F)cc2)c(F)c1 [compound 546] | 98% | 100% | 0% | 100% | 100% | 99% | 100% |  |  |  |  |  |  | 
6 | COc1cc(F)c(-c2c(Cl)nc(Br)n2-c2cccc(OC(F)(F)F)c2)c(F)c1 [compound 547] | 97% | 99% | 0% | 100% | 99% | 60% | 88% |  |  |  |  |  |  | 
7 | COc1cc(F)c(-c2c(Cl)nc(Br)n2-c2ccc(OC(F)(F)F)cc2)c(F)c1 [compound 548] | 96% | 98% | 0% | 100% | 99% | 94% | 100% |  |  |  |  |  |  | 
8 | COc1ccc(Cl)c(-c2c(Cl)nc(C)n2-c2ccc(Cl)cc2)c1F [compound 550] | 97% | 100% | 0% | 100% | 99% | 100% | 100% |  |  |  |  |  |  | 
9 | COc1ccc(F)c(-c2c(Cl)nc(Br)n2-c2ccc(C)c(F)c2)c1F [compound 551] | 98% | 100% | 0% | 100% | 100% | 96% | 100% |  |  |  |  |  |  | 
10 | COc1ccc(F)c(-c2c(Cl)nc(Cl)n2-c2ccc(C#N)cc2)c1F [compound 552] | 96% | 99% | 0% | 98% | 46% | 0% | 100% |  |  |  |  |  |  | 
11 | COc1cc(F)c(-c2c(Cl)nc(Cl)n2-c2ccc(C)nc2)c(F)c1 [compound 553] | 99% | 100% | 100% | 100% | 100% | 100% | 100% |  |  |  |  |  |  | 
12 | COc1cc(F)c(-c2c(Br)nc(Br)n2-c2ccc(C)nc2)c(F)c1 [compound 554] | 99% | 100% | 100% | 100% | 100% | 100% | 100% |  |  |  |  |  |  | 
13 | COc1cc(F)c(-c2c(Br)ncn2-c2ccc(C)nc2)c(F)c1 [compound 555] | 98% | 100% | 0% | 98% | 100% | 69% | 99% |  |  |  |  |  |  | 
14 | COc1cc(F)c(-c2c(Cl)ncn2-c2cccc(OC(F)F)c2)c(F)c1 [compound 556] | 95% | 100% | 87% | 97% | 100% | 98% | 99% |  |  |  |  |  |  | 
15 | COc1cc(F)c(-c2c(Cl)ncn2-c2ccc(OC(F)F)cc2)c(F)c1 [compound 557] | 96% | 100% | 43% | 87% | 99% | 78% | 99% |  |  |  |  |  |  | 
16 | COc1cc(F)c(-c2c(Cl)ncn2-c2cccc(OC(F)(F)F)c2)c(F)c1 [compound 558] | 94% | 100% | 15% | 100% | 99% | 0% | 0% |  |  |  |  |  |  | 
17 | COc1cc(F)c(-c2c(Cl)ncn2-c2ccc(OC(F)(F)F)cc2)c(F)c1 [compound 559] | 95% | 94% | 29% | 98% | 88% | 0% | 41% |  |  |  |  |  |  | 
18 | COc1cc(F)c(-n2cnc(C)c2-c2ccc(C)cc2)c(F)c1 [compound 560] |  |  |  |  |  |  |  | 65* % | 99* % | 33* % | 93* % | 79* % | 0* % | 0* %
19 | COc1ccc(F)c(-c2c(Cl)nc(Cl)n2-c2ccc(C)c(F)c2)c1F [compound 561] | 100% | 99% | 9% | 100% | 100% | 97% | 100% |  |  |  |  |  |  | 
20 | COc1ccc(F)c(-c2c(Cl)nc(Cl)n2-c2ccc(Br)cc2)c1F [compound 562] | 100% | 100% | 0% | 100% | 99% | 99% | 100% |  |  |  |  |  |  | 
